Test: CuAAC: 1,7-diethynyl PDI 8 + bis-azide, [1+1] macrocyclisation; Cu(MeCN)4PF6 0.4 eq with TBTA 0.4 eq (THPTA for 2a), N2, rt
Settings: the molecule shown is the open-chain precursor, CH2Cl2, 0.22 mM, 25.0 °C

Question: For `C#Cc1cc2c3c(ccc4c5c(-c6cn(CCCCCCOc7ccc(OCCCCCCN=[N+]=[N-])cc7)nn6)cc6c7c(ccc(c1c34)c75)C(=O)N(c1c(C(C)C)cccc1C(C)C)C6=O)C(=O)N(c1c(C(C)C)cccc1C(C)C)C2=O` [1b (hydroquinone, n=6)], which ring closure, isolated yield (30-membered ring, 96.0 h) is on record?
Answer: Its ring closure, isolated yield is 23%.

Question: Which ring closure, isolated yield (30-membered ring, 96.0 h) does the source give for `C#Cc1cc2c3c(ccc4c5c(-c6cn(CCCCCCOc7ccc8ccccc8c7-c7c(OCCCCCCN=[N+]=[N-])ccc8ccccc78)nn6)cc6c7c(ccc(c1c34)c75)C(=O)N(c1c(C(C)C)cccc1C(C)C)C6=O)C(=O)N(c1c(C(C)C)cccc1C(C)C)C2=O` here?
Answer: Its ring closure, isolated yield is 53%.

Question: With `C#Cc1cc2c3c(ccc4c5c(-c6cn(CCCCOc7ccc(OCCCCN=[N+]=[N-])cc7)nn6)cc6c7c(ccc(c1c34)c75)C(=O)N(c1c(C(C)C)cccc1C(C)C)C6=O)C(=O)N(c1c(C(C)C)cccc1C(C)C)C2=O` [1a (hydroquinone, n=4)] as the compound, how does the ring closure, isolated yield (26-membered ring, 96.0 h) read?
Answer: Its ring closure, isolated yield is 24%.

Question: With `C#Cc1cc2c3c(ccc4c5c(-c6cn(CCCCCCCCOc7ccc8ccccc8c7-c7c(OCCCCCCCCN=[N+]=[N-])ccc8ccccc78)nn6)cc6c7c(ccc(c1c34)c75)C(=O)N(c1c(C(C)C)cccc1C(C)C)C6=O)C(=O)N(c1c(C(C)C)cccc1C(C)C)C2=O` as the compound, how does the ring closure, isolated yield (34-membered ring, 96.0 h) read?
Answer: Its ring closure, isolated yield is 33%.

Question: Which ring closure, isolated yield (26-membered ring, 144.0 h) does the source give for `C#Cc1cc2c3c(ccc4c5c(-c6cn(CCCCOc7ccc8ccccc8c7-c7c(OCCCCN=[N+]=[N-])ccc8ccccc78)nn6)cc6c7c(ccc(c1c34)c75)C(=O)N(c1c(C(C)C)cccc1C(C)C)C6=O)C(=O)N(c1c(C(C)C)cccc1C(C)C)C2=O` [2a (P-BINOL, n=4; PM 2% + PP 2%, dr 1:1)] here?
Answer: The ring closure, isolated yield was 4%.
